In US9434727B2, “Substituted 4-phenylpiperidines, their preparation and use” (THE TRUSTEES OF COLUMBIA UNIVERSITY IN THE CITY OF NEW YORK, priority 2014, dated 2016):

Columns and labels:
RBP4 = RBP4 (Homo sapiens (Human), UniProt P02753); assay: Scintillation proximity (SPA) RBP4 binding assay; conditions: 10 nM 3H-Retinol, 50 nM biotinylated RBP4
Method: Scintillation Proximity RBP4 Binding Assay
Untagged human RBP4 purified from urine of tubular proteinuria patients was purchased from Fitzgerald Industries International. It was biotinylated using the EZ-Link Sulfo-NHS-LC-Biotinylation kit from Pierce following the manufacturer's recommendations. Binding experiments were performed in 96-well plates (OptiPlate, PerkinElmer) in a final assay volume of 100 μl per well in SPA buffer (IX PBS, pH 7.4, 1 mM EDTA, 0.1% BSA, 0.5% CHAPS). The reaction mix contained 10 nM ^3H-Retinol (48.7 Ci/mmol; PerkinElmer), 0.3 mg/well Streptavidin-PVT beads, 50 nM biotinylated RBP4 and a test compound. Nonspecific binding was determined in the presence of 20 μM of unlabeled retinol. The reaction mix was assembled in the dark under dim red light. The plates were sealed with clear tape (TopSeal-A: 96-well microplate, PerkinElmer), wrapped in the aluminum foil, and allowed to equilibrate 6 hours at room temperature followed by overnight incubation at +4° C. Radiocounts were measured using a TopCount NXT counter (Packard Instrument Company).

RBP4-TTR interaction = RBP4-TTR interaction (Homo sapiens (Human), UniProt P02753); assay: TR-FRET (HTRF) assay for retinol-induced RBP4-TTR interaction; format: biochemical; conditions: in the presence of 1 μM retinol; read-out: HTRF assay for antagonists of RBP4-TTR interaction: IC50
Excerpt: TR-FRET assay for retinol-induced RBP4-TTR interaction Binding of a desired RBP4 antagonist displaces retinol and induces hindrance for RBP4-TTR interaction resulting in the decreased FRET signal (FIG. 7). Bacterially expressed MBP-RBP4 and untagged TTR were used in this assay. […] Following cell lysis, recombinant RBP4 was purified from the soluble fraction using the ACTA FPLC system (GE Healthcare) equipped with the 5-ml the MBP Trap HP column. Human untagged TTR was purchased from Calbiochem. Untagged TTR was labeled directly with Eu^3+ Cryptate-NHS using the HTRF Cryptate Labeling kit from CisBio following the manufacturer's recommendations. HTRF assay was performed in white low volume 384 well plates (Greiner-Bio) in a final assay volume of 16 μl per well. The reaction buffer contained 10 mM Tris-HCl pH 7.5, 1 mM DTT, 0.05% NP-40, 0.05% Prionex, 6% glycerol, and 400 mM KF. […] Titration of test compounds in this assay was conducted in the presence of 1 μM retinol. All reactions were assembled in the dark under dim red light and incubated overnight at +4° C. wrapped in aluminum foil. TR-FRET signal was measured in the SpectraMax M5e Multimode Plate Reader (Molecular Device). […] The TR-FRET signal was expressed as the ratio of fluorescence intensity: Flu665/Flu620×10,000.

With `COC(=O)N1Cc2[nH]nc(C(=O)N3CCC(c4ccc(F)c(F)c4C(F)(F)F)CC3)c2C1` [Compound 101, methyl 3-(4-(3,4-difluoro-2-(trifluoromethyl)phenyl)piperidine-1-carbonyl)-4,6-dihydropyrrolo[3,4-c]pyrazole-5(1H)-carboxylate] the IC50 (RBP4) was 7.44 nM and the IC50 (RBP4-TTR interaction) was 14.1 nM.

Molecule `CCN1Cc2[nH]nc(C(=O)N3CCC(c4ccc(F)c(F)c4C(F)(F)F)CC3)c2C1` [Compound 96, (4-(3,4-difluoro-2(trifluoromethyl)phenyl)piperidin-1-yl)(5-ethyl-1,4,5,6-tetrahydropyrrolo[3,4-c]pyrazol-3-yl)methanone] has an IC50 (RBP4) of 12.7 nM and an IC50 (RBP4-TTR interaction) of 26.5 nM.

For `COC(=O)N1CCc2[nH]nc(C(=O)N3CCC(c4cc(F)cc(F)c4C(F)(F)F)CC3)c2C1` [Compound 138, Methyl 3-(4-(3,5-difluoro-2-(trifluoro-methyl)phenyl)piperidine-1-carbonyl)-6,7-dihydro-1H-pyrazolo[4,3-c]pyridine-5(4H)-carboxylate], the IC50 (RBP4) was 10.1 nM and the IC50 (RBP4-TTR interaction) was 24.4 nM.

`CS(=O)(=O)N1CCc2[nH]nc(C(=O)N3CCC(c4cc(F)ccc4Cl)CC3)c2C1` [Compound 144, (4-(2-chloro-5-fluorophenyl)piperidin-1-yl)(5-(methylsulfonyl)-4,5,6,7-tetrahydro-1H-pyrazolo[4,3-c]pyridin-3-yl)methanone] was tested, and the IC50 (RBP4) was 6.17 nM and the IC50 (RBP4-TTR interaction) was 70.3 nM.

`CC(C)C(=O)N1Cc2[nH]nc(C(=O)N3CCC(c4ccc(F)c(F)c4C(F)(F)F)CC3)c2C1` [Compound 85, 1-(3-(4-(3,4-difluoro-2-(trifluoromethyl)phenyl)piperidine-1-carbonyl)pyrrolo[3,4-c]pyrazol 5(1H,4H,6H)-yl)-2-methylpropan-1-one] gave an IC50 (RBP4) of 17.9 nM and an IC50 (RBP4-TTR interaction) of 22.4 nM.

Work on `O=C(c1n[nH]c2c1CN(C(=O)N1CCCC1)C2)N1CCC(c2ccc(F)c(F)c2C(F)(F)F)CC1` [Compound 106, (4-(3,4-difluoro-2-(trifluoromethyl)phenyl)piperidin-1-yl)(5-(pyrrolidine-1-carbonyl)-1,4,5,6-tetrahydropyrrolo[3,4-c]pyrazol-3-yl)methanone] yielded an IC50 (RBP4) of 20.4 nM and an IC50 (RBP4-TTR interaction) of 29.8 nM.

Work on `CS(=O)(=O)N1CCc2[nH]nc(C(=O)N3CCC(c4cccc(F)c4C(F)(F)F)CC3)c2C1` [Compound 64, (4-(3-Fluoro-2-(trifluoromethyl)phenyl)piperidin-1-yl)(5-(methylsulfonyl)-4,5,6,7-tetrahydro-1H-pyrazolo[4,3-c]pyridin-3-yl)methanone] yielded an IC50 (RBP4) of 5.36 nM and an IC50 (RBP4-TTR interaction) of 20.6 nM.

`O=C(c1n[nH]c2c1CN(C1COC1)C2)N1CCC(c2ccc(F)c(F)c2C(F)(F)F)CC1` [Compound 98, (4-(3,4-difluoro-2-(trifluoromethyl)phenyl)piperidin-1-yl)(5-(oxetan-3-yl)-1,4,5,6-tetrahydropyrrolo[3,4-c]pyrazol-3-yl) methanone] gave an IC50 (RBP4) of 11.8 nM and an IC50 (RBP4-TTR interaction) of 74.1 nM.

In the case of `O=C(c1n[nH]c2c1CN(CCC(F)(F)F)CC2)N1CCC(c2cc(F)cc(F)c2C(F)(F)F)CC1` [Compound 129, (4-(3,5-Difluoro-2-(trifluoromethyl)phenyl)piperidin-1-yl)(5-(3,3,3-trifluoropropyl)-4,5,6,7-tetrahydro-1H-pyrazolo[4,3-c]pyridin-3-yl)methanone], the IC50 (RBP4) is reported as 13.8 nM and the IC50 (RBP4-TTR interaction) is reported as 19.5 nM.

`O=C(c1n[nH]c2c1CN(C1COC1)CC2)N1CCC(c2cccc(F)c2Cl)CC1` [Compound 165, (4-(2-Chloro-3-fluorophenyl)piperidin-1-yl)(5-(oxetan-3-yl)-4,5,6,7-tetrahydro-1H-pyrazolo[4,3-c]pyridin-3-yl)methanone] showed an IC50 (RBP4) of 15.6 nM and an IC50 (RBP4-TTR interaction) of 64.8 nM.

In the case of `CCN1CCc2[nH]nc(C(=O)N3CCC(c4cccc(F)c4Cl)CC3)c2C1` [Compound 163, (4-(2-Chloro-3-fluorophenyl)piperidin-1-yl)(5-ethyl-4,5,6,7-tetrahydro-1H-pyrazolo[4,3-c]pyridin-3-yl)methanone], the IC50 (RBP4) is reported as 15.3 nM and the IC50 (RBP4-TTR interaction) is reported as 55.3 nM.

With `CS(=O)(=O)N1CCc2[nH]nc(C(=O)N3CCC(c4cccc(F)c4Cl)CC3)c2C1` [Compound 151] the IC50 (RBP4) was 10.3 nM and the IC50 (RBP4-TTR interaction) was 67.7 nM.

With `N#CN1CCc2c(C(=O)N3CCC(c4ccc(F)c(F)c4C(F)(F)F)CC3)n[nH]c2C1` [Compound 120, 3-(4-(3,4-Difluoro-2-(trifluoromethyl)phenyl)piperidine-1-carbonyl)-1,4,5,7-tetrahydro-6H-pyrazolo[3,4-c]pyridine-6-carbonitrile] the IC50 (RBP4) was 3.45 nM.

For `CC(C)(C)CN1CCc2c(C(=O)N3CCC(c4ccc(F)c(F)c4C(F)(F)F)CC3)n[nH]c2C1` [Compound 126, (4-(3,4-Difluoro-2(trifluoromethyl)phenyl)piperidin-1-yl)(6-neopentyl-4,5,6,7-tetrahydro-1H-pyrazolo[3,4-c]pyridin-3-yl)methanone], the IC50 (RBP4) was 17 nM and the IC50 (RBP4-TTR interaction) was 170 nM.

With `CCC(=O)N1Cc2[nH]nc(C(=O)N3CCC(c4ccc(F)c(F)c4C(F)(F)F)CC3)c2C1` [Compound 84, 1-(3-(4-(3,4-difluoro-2-(trifluoromethyl)phenyl)piperidine-1-carbonyl)pyrrolo[3,4-c]pyrazol-5(1H,4H,6H)-yl)propan-1-one] the IC50 (RBP4) was 16.3 nM and the IC50 (RBP4-TTR interaction) was 14.7 nM.

In the case of `O=C(c1n[nH]c2c1CN(C1COC1)CC2)N1CCC(c2cccc(F)c2C(F)(F)F)CC1` [Compound 74], the IC50 (RBP4) is reported as 11.6 nM and the IC50 (RBP4-TTR interaction) is reported as 28.3 nM.

Molecule `COC(=O)N1CCc2[nH]nc(C(=O)N3CCC(c4ccc(F)c(F)c4C(F)(F)F)CC3)c2C1` [Compound 91, methyl 3-(4-(3,4-difluoro-2-(trifluoromethyl)phenyl)piperidine-1-carbonyl)-6,7-dihydro-1H-pyrazolo[4,3-c]pyridine-5(4H)-carboxylate] has an IC50 (RBP4) of 7.06 nM and an IC50 (RBP4-TTR interaction) of 57.7 nM.

For `COCCN1CCc2[nH]nc(C(=O)N3CCC(c4cc(F)cc(F)c4C(F)(F)F)CC3)c2C1` [Compound 127, (4-(3,5-Difluoro-2-(trifluoromethyl)phenyl)piperidin-1-yl)(5-(2-methoxyethyl)-4,5,6,7-tetrahydro-1H-pyrazolo[4,3-c]pyridin-3-yl)methanone], the IC50 (RBP4) was 15.9 nM and the IC50 (RBP4-TTR interaction) was 17 nM.

`O=C(c1ccccc1)N1Cc2[nH]nc(C(=O)N3CCC(c4ccc(F)c(F)c4C(F)(F)F)CC3)c2C1` [Compound 102, (5-benzoyl-1,4,5,6-tetrahydropyrrolo[3,4-c]pyrazol-3-yl)(4-(3,4-difluoro-2-(trifluoromethyl)phenyl)piperidin-1-yl)methanone] showed an IC50 (RBP4) of 21.7 nM and an IC50 (RBP4-TTR interaction) of 27.6 nM.

With `CCN1CCc2c(C(=O)N3CCC(c4ccc(F)c(F)c4C(F)(F)F)CC3)n[nH]c2C1` [Compound 111, (4-(3,4-Difluoro-2-(trifluoromethyl)phenyl)piperidin-1-yl)(6-ethyl-4,5,6,7-tetrahydro-1H-pyrazolo[3,4-c]pyridin-3-yl)methanone] the IC50 (RBP4) was 6.89 nM and the IC50 (RBP4-TTR interaction) was 22.1 nM.

With `CC(=O)N1CCc2c(C(=O)N3CCC(c4cc(C(F)(F)F)cc(C(F)(F)F)c4)CC3)n[nH]c2C1` [Compound 153, 1-(3-(4-(3,5-bis(trifluoromethyl)phenyl)piperidine-1-carbonyl)-4,5-dihydro-1H-pyrazolo[3,4-c]pyridin-6(7H)-yl)ethanone] the IC50 (RBP4) was 149 nM and the IC50 (RBP4-TTR interaction) was 833 nM.

With `O=C(c1n[nH]c2c1CN(C(=O)N1CCNCC1)C2)N1CCC(c2ccc(F)c(F)c2C(F)(F)F)CC1` [Compound 169, (4-(3,4-Difluoro-2-(trifluoromethyl)phenyl)piperidin-1-yl)(5-(piperazine-1-carbonyl)-1,4,5,6-tetrahydropyrrolo[3,4-c]pyrazol-3-yl)methanone] the IC50 (RBP4) was 33 nM and the IC50 (RBP4-TTR interaction) was 55.8 nM.

`N#CN1CCc2[nH]nc(C(=O)N3CCC(c4cccc(F)c4C(F)(F)F)CC3)c2C1` [Compound 70, 3-(4-(3-Fluoro-2-(trifluoromethyl)phenyl)piperidine-1-carbonyl)-6,7-dihydro-1H-pyrazolo[4,3-c]pyridine-5(4H)-carbonitrile] gave an IC50 (RBP4-TTR interaction) of 37.5 nM.

Molecule `O=C(c1n[nH]c2c1CN(C(=O)N1CCCCC1)C2)N1CCC(c2ccc(F)c(F)c2C(F)(F)F)CC1` [Compound 128, (4-(3,4-Difluoro-2-(trifluoromethyl)phenyl)piperidin-1-yl)(5-(piperidine-1-carbonyl)-1,4,5,6 tetrahydropyrrolo[3,4-c]pyrazol-3-yl)methanone] has an IC50 (RBP4-TTR interaction) of 32.4 nM.

`N#CN1CCc2c(C(=O)N3CCC(c4cccc(F)c4C(F)(F)F)CC3)n[nH]c2C1` [Compound 78, 3-(4-(3-Fluoro-2-(trifluoromethyl)phenyl)piperidine-1-carbonyl)-4,5-dihydro-1H-pyrazolo[3,4-c]pyridine-6(7H)-carbonitrile] gave an IC50 (RBP4) of 9.5 nM.
